Laboratory results taken from article PMC12186257, “Serendipitous and Systematic Chemoproteomic Discovery of MBLAC2, HINT1, and NME1‑4 Inhibitors from Histone Deacetylase-Targeting Pharmacophores” (ACS Chemical Biology, 2025).

Biological target: T1, MERTK (Homo sapiens, UniProt Q12866)
T1 construct: endogenous in cells
T1 sequence (Q12866 21-999): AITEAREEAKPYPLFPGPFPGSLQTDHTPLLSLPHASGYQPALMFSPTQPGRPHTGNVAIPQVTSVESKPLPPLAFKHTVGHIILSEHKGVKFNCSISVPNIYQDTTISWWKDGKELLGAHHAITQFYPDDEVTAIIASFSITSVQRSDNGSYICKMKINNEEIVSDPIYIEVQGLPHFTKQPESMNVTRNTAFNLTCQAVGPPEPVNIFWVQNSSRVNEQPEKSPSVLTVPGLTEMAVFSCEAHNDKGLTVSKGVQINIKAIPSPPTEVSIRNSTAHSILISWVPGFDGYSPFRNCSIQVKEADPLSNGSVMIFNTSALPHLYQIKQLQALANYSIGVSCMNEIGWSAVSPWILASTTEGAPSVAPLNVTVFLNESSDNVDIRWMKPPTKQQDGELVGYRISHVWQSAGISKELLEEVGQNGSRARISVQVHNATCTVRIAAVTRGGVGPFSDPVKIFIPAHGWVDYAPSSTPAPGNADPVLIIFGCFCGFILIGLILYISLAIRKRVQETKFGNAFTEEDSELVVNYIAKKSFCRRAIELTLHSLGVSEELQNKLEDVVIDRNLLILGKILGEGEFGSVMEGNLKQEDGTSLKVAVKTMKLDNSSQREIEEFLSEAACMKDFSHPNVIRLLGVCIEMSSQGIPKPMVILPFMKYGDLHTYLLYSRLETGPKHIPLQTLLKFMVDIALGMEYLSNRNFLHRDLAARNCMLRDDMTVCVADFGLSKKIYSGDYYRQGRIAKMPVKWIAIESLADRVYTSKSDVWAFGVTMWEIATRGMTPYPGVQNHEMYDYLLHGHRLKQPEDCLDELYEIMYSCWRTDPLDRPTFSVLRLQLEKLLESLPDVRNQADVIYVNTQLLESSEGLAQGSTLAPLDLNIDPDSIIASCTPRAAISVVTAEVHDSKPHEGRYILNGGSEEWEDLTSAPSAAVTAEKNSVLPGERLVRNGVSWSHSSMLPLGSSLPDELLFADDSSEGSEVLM
Test: Kinobead competition assay
Format: binding
Settings: only kinase among >190
Description: The binding of KV-24 and KV-30 to the nucleotide-binding pocket raises the question of whether these compounds also target other nucleotide-binding proteins, such as kinases. To evaluate potential off-target effects, we performed Kinobead competition assays. This chemoproteomic approach is conceptually very similar to the one used here in that broad spectrum kinase inhibitors are immobilized on beads. […] PDE1C is a cAMP/cGMP nucleotide-binding protein that features two divalent metal cation cofactors. The hydroxamic acid moiety of KV-24 might chelate these metal cofactors, supporting the hypothesis that KV-24 binds the active site of PDE1C. […] With the help of our chemoproteomic platform, future structure–activity relationship (SAR) libraries based on the KV-24 and KV-30 scaffolds may be explored to improve selectivity toward either HINT1, kinase targets, or PDE1C. […]
LC-MS/MS. The different sample types were measured with different LC-MS/MS settings. MBLAC2 2-dose competition assays were measured with the Lumos1 setup, MBLAC2 9-dose competition assays were measured with the Lumos2 setup, and kinobeads assays were measured with the Eclipse setup.
Peptides were analyzed via LC–MS/MS on a Dionex Ultimate3000 nano HPLC coupled to either one of two Orbitrap Fusion Lumos mass spectrometers, or to an Orbitrap Eclipse mass spectrometer, operated via the Thermo Scientific Xcalibur software. […]

- MERTK binding: potential binding
Compound: O=C(NO)c1ccc(-c2nc3ccccc3c3ccccc23)cc1 [KV-30]
